Reference: patent US9073821B2, “Hydroxamic acid derivative” (priority 2010, dated 2015)

Target: Pseudomonas aeruginosa LpxC enzyme (Pseudomonas aeruginosa (strain ATCC 15692 / DSM 22644 / CIP 104116 / JCM 14847 / LMG 12228 / 1C / PRS 101 / PAO1), UniProt P47205)
Test: biochemical
Format: biochemical
Settings: class symbols A/B/C by IC50; Table 3; read-out: Enzyme inhibitory activity (inhibitory activity on Pseudomonas aeruginosa LpxC enzyme)
Method: Test 1: Evaluation of the Inhibitory Activity on Pseudomonas aeruginosa LpxC Enzyme
An inhibition curve was constructed for each test compound by performing the aforementioned reaction at varying concentrations of the test compound. From this inhibition curve, the concentration of the test compound at which the formation of the reaction product was suppressed by 50% was determined as the IC50 of the test compound, which was an index for the inhibitory activity on Pseudomonas aeruginosa LpxC enzyme.

`CNC(=O)C(C(=O)NO)N(C)C(=O)c1ccc(C#Cc2ccc(N3CCC(N4CCOCC4)CC3)cc2)cc1` (centres unmarked) [Compound 496, N-hydroxy-N′-methyl-2-(methyl {[4-({4-[4-(morpholin-4-yl)piperidin-1-yl]phenyl}ethynyl)phenyl]carbonyl}amino)propanediamide] and `CNC(=O)C(C(=O)NO)N(C)C(=O)c1ccc(C#Cc2ccc(CN3CCCC(C)(C)C3)cc2)cc1` (centres unmarked) [Compound 513, 2-[{[4-({4-[(3,3-dimethylpiperidin-1-yl)methyl]phenyl}ethynyl)phenyl]carbonyl}(methyl)amino]-N-hydroxy-N′-methylpropanediamide] cannot be ordered by IC50: < 10 nM for the first, < 10 nM for the second.

First: CCn1cc(C#Cc2ccc(C(=O)N(C)C(C(=O)NC)C(=O)NO)cc2)cn1 (centres unmarked) [Compound 517, 2-[({4-[(1-ethyl-1H-pyrazol-4-yl)ethynyl]phenyl}carbonyl)(methyl)amino]-N-hydroxy-N′-methylpropanediamide]
Second: CCO/N=C/c1ccc(C#Cc2ccc(C(=O)N(C)C(C(=O)NC)C(=O)NO)cc2)o1 (centres unmarked) [Compound 501, 2-[{[4-({5-[(E)-(ethoxyimino)methyl]furan-2-yl}ethynyl)phenyl]carbonyl}(methyl)amino]-N-hydroxy-N′-methylpropanediamide]
The IC50 of the first is higher: 10 to 100 nM for the first, < 10 nM for the second.

Same assay, conditions: inhibitory activity on Pseudomonas aeruginosa LpxC enzyme, class symbols A/B/C; read-out: Enzyme inhibitory activity

First: CNC(=O)C(C(=O)NO)N(C)C(=O)c1ccc(-c2ccccc2)s1 (centres unmarked) [Compound 442, N-hydroxy-N′-methyl-2-{methyl[(5-phenylthiophen-2-yl)carbonyl]amino}propanediamide]
Second: CNC(=O)C(C(=O)NO)N(C)C(=O)c1ccc(-c2ccccc2)cc1F (centres unmarked) [Compound 27, 2-{[(3-fluorobiphenyl-4-yl)carbonyl](methyl)amino}-N-hydroxy-N′-methylpropanediamide]
The IC50 of the first is higher: > 100 nM for the first, 10 to 100 nM for the second. The second is the more potent here.

`CCCc1ccc(-c2ccc(C(=O)N(C)C(C(=O)NC)C(=O)NO)cc2)cc1` (centres unmarked) [Compound 182, N-hydroxy-N′-methyl-2-{methyl[(4′-propylbiphenyl-4-yl)carbonyl]amino}propanediamide] and `CCCNc1ccc(-c2ccc(C(=O)N(C)C(C(=O)NC)C(=O)NO)cc2)cc1` (centres unmarked) [Compound 245, N-hydroxy-N′-methyl-2-(methyl {[4′-(propylamino)biphenyl-4-yl]carbonyl}amino)propanediamide] cannot be ordered by IC50: < 10 nM for the first, < 10 nM for the second.

First: CNC(=O)C(C(=O)NO)N(C)C(=O)c1ccc(-c2cncc(C(F)(F)F)c2)cc1 (centres unmarked) [Compound 446, N-hydroxy-N′-methyl-2-[methyl({4-[5-(trifluoromethyl)pyridin-3-yl]phenyl}carbonyl)amino]propanediamide]
Second: CNC(=O)C(C(=O)NO)N(C)C(=O)c1ccc(-c2ccc(Cl)c(Cl)c2)cc1 (centres unmarked) [Compound 224, 2-{[(3′,4′-dichlorobiphenyl-4-yl)carbonyl](methyl)amino}-N-hydroxy-N′-methylpropanediamide]
The IC50 of the first is higher: > 100 nM for the first, < 10 nM for the second. The second is the more potent here.

`CNC(=O)C(C(=O)NO)N(C)C(=O)c1ccc(CCc2ccc(CCN3CCOCC3)cc2)cc1` (centres unmarked) [Compound 209, N-hydroxy-N′-methyl-2-{methyl[4-(2-{4-[2-(morpholin-4-yl)ethyl]phenyl}ethyl)benzoyl]amino}propanediamide] and `CCN(C(=O)c1ccc(C#Cc2ccc(CN3CCCOCC3)cc2)cc1)C(C(=O)NC)C(=O)NO` (centres unmarked) [Compound 336, 2-{ethyl[(4-{[4-(1,4-oxazepan-4-ylmethyl)phenyl]ethynyl}phenyl)carbonyl]amino}-N-hydroxy-N′-methylpropanediamide] cannot be ordered by IC50: < 10 nM for the first, < 10 nM for the second.

First: O=C(NC(C(=O)NO)C(=O)NO)c1ccc(-c2ccccc2)cc1 [Compound 109, 2-[(biphenyl-4-ylcarbonyl)amino]-N,N′-dihydroxypropanediamide]
Second: CNC(=O)C(C)(NC(=O)c1ccc(-c2ccccc2)cc1)C(=O)NO (centres unmarked) [Compound 164, 2-[(Biphenyl-4-ylcarbonyl)amino]-N-hydroxy-N′,2-dimethylpropanediamide]
The IC50 of the first is lower: 10 to 100 nM for the first, > 100 nM for the second. The first is the more potent here.

First: CNC(=O)C(C(=O)NO)N(C)C(=O)c1ccc(C#Cc2ccccc2)cn1 (centres unmarked) [Compound 455, N-hydroxy-N′-methyl-2-(methyl {[5-(phenylethynyl)pyridin-2-yl]carbonyl}amino)propanediamide]
Second: CNC(=O)C(C(=O)NO)N(C)C(=O)c1ccc(OCc2ccccc2)cc1 (centres unmarked) [Compound 454, 2-[{[4-(benzyloxy)phenyl]carbonyl}(methyl)amino]-N-hydroxy-N′-methylpropanediamide]
The IC50 of the first is higher: > 100 nM for the first, 10 to 100 nM for the second. The second is the more potent here.

First: CNC(=O)C(C(=O)NO)N(C)C(=O)c1ccc(C#Cc2coc(CNCC(F)(F)F)c2)cc1 (centres unmarked) [Compound 488, N-hydroxy-N′-methyl-2-[methyl({4-[(5-{[(2,2,2-trifluoroethyl)amino]methyl}furan-3-yl)ethynyl]phenyl}carbonyl)amino]propanediamide]
Second: CNC(=O)C(C(=O)NO)N(C)C(=O)c1ccc(-c2cccc(O)c2)cc1 (centres unmarked) [Compound 48, N-hydroxy-2-{[(3′-hydroxybiphenyl-4-yl)carbonyl](methyl)amino}-N′-methylpropanediamide]
The IC50 of the first is lower: < 10 nM for the first, 10 to 100 nM for the second. The first is the more potent here.

`CNC(=O)C(C(=O)NO)N(C)C(=O)c1ccc(-c2ccc(OCCC(O)CO)cc2)cc1` (centres unmarked) [Compound 181, 2-[{[4′-(3,4-dihydroxybutoxy)biphenyl-4-yl]carbonyl}(methyl)amino]-N-hydroxy-N′-methylpropanediamide] and `CNC(=O)C(C(=O)NO)N(C)C(=O)c1ccc(-c2ccc(OCCOC)cc2)cc1` (centres unmarked) [Compound 191, N-hydroxy-2-[{[4′-(2-methoxyethoxy)biphenyl-4-yl]carbonyl}(methyl)amino]-N′-methylpropanediamide] cannot be ordered by IC50: < 10 nM for the first, < 10 nM for the second.

`CNC(=O)C(C(=O)NO)N(C)C(=O)c1ccc(-c2ccc(N3CC(O)C3)cc2)cc1` (centres unmarked) [Compound 244, N-hydroxy-2-[{[4′-(3-hydroxyazetidin-1-yl)biphenyl-4-yl]carbonyl}(methyl)amino]-N′-methylpropanediamide] and `CNC(=O)C(C(=O)NO)N(C)C(=O)c1ccc(-c2ccc(C(C)O)cc2)cc1` (centres unmarked) [Compound 261, N-hydroxy-2-[{[4′-(1-hydroxyethyl)biphenyl-4-yl]carbonyl}(methyl)amino]-N′-methylpropanediamide] fall in the same range of IC50: 10 to 100 nM for the first, 10 to 100 nM for the second.

`CNC(=O)C(C(=O)NO)N(C)C(=O)c1ccc(-c2ccc3c(c2)CCN3)cc1` (centres unmarked) [Compound 39, 2-{[4-(2,3-dihydro-1H-indol-5-yl)benzoyl](methyl)amino}-N-hydroxy-N′-methylpropanediamide] and `CNC(=O)C(C(=O)NO)N(C)C(=O)c1ccc(-c2ccc3c(c2)ncn3C)cc1` (centres unmarked) [Compound 281, N-hydroxy-N′-methyl-2-{methyl[4-(1-methyl-1H-benzimidazol-5-yl)benzoyl]amino}propanediamide] fall in the same range of IC50: 10 to 100 nM for the first, 10 to 100 nM for the second.

`CCCNC(=O)c1ccc(-c2ccc(C(=O)N(C)C(C(=O)NC)C(=O)NO)cc2)cc1` (centres unmarked) [Compound 257, N-[1-(hydroxyamino)-3-(methylamino)-1,3-dioxopropan-2-yl]-N-methyl-N′-propylbiphenyl-4,4′-dicarboxamide] and `CNC(=O)C(C(=O)NO)N(C)C(=O)c1ccc(-c2ccc3nn(C)cc3c2)cc1` (centres unmarked) [Compound 197, N-hydroxy-N′-methyl-2-{methyl[4-(2-methyl-2H-indazol-5-yl)benzoyl]amino}propanediamide] fall in the same range of IC50: 10 to 100 nM for the first, 10 to 100 nM for the second.

`CNC(=O)C(C(=O)NO)N(C(=O)c1ccc(-c2ccccc2)cc1)C1CCC1` (centres unmarked) [Compound 163, 2-[(biphenyl-4-ylcarbonyl)(cyclobutyl)amino]-N-hydroxy-N′-methylpropanediamide] and `CNC(=O)C(C(=O)NO)N(CCOC)C(=O)c1ccc(-c2ccccc2)cc1` (centres unmarked) [Compound 166, 2-[(biphenyl-4-ylcarbonyl)(2-methoxyethyl)amino]-N-hydroxy-N′-methylpropanediamide] fall in the same range of IC50: 10 to 100 nM for the first, 10 to 100 nM for the second.

Compared with `CNC(=O)C(C(=O)NO)N(C)C(=O)c1ccc(/C=C/c2ccccc2)cc1` (centres unmarked) [Compound 63, N-hydroxy-N′-methyl-2-(methyl {4-[(E)-2-phenylethenyl]benzoyl}amino)propanediamide], `CNC(=O)C(C(=O)NO)N(C)C(=O)c1ccc(Oc2ccccc2)cc1` (centres unmarked) [Compound 443, N-hydroxy-N′-methyl-2-{methyl[(4-phenoxyphenyl)carbonyl]amino}propanediamide] is higher in IC50: 10 to 100 nM for the first, > 100 nM for the second.

First: CNC(=O)C(C(=O)NO)N(C)C(=O)c1ccc(-c2ccc(OCCCN(C)Cc3c(F)cccc3F)cc2)cc1 (centres unmarked) [Compound 92, 2-{[(4′-{3-[(2,6-difluorobenzyl)(methyl)amino]propoxy}biphenyl-4-yl)carbonyl](methyl)amino}-N-hydroxy-N′-methylpropanediamide]
Second: CNC(=O)C(C(=O)NO)N(C)C(=O)c1ccc(-c2ccc(OCCCN(C)Cc3ccccc3)cc2NC)cc1 (centres unmarked) [Compound 106, 2-[{[4′-{3-[benzyl(methyl)amino]propoxy}-2′-(methylamino)biphenyl-4-yl]carbonyl}(methyl)amino]-N-hydroxy-N′-methylpropanediamide]
The IC50 of the first is lower: < 10 nM for the first, 10 to 100 nM for the second.

`Cc1cccc(CNC(=O)C(NC(=O)c2ccc(-c3ccc(OCCO)cc3)cc2)C(=O)NO)n1` (centres unmarked) [Compound 150, N-hydroxy-2-({[4′-(2-hydroxyethoxy)biphenyl-4-yl]carbonyl}amino)-N′-[(6-methylpyridin-2-yl)methyl]propanediamide] and `O=C(NC(C(=O)NO)C(=O)NCC1CCC1)c1ccc(-c2ccc(OCCO)cc2)cc1` (centres unmarked) [Compound 128, N-(cyclobutylmethyl)-N′-hydroxy-2-({[4′-(2-hydroxyethoxy)biphenyl-4-yl]carbonyl}amino)propanediamide] cannot be ordered by IC50: < 10 nM for the first, < 10 nM for the second.

For `CNC(=O)C(C(=O)NO)N(C)C(=O)c1ccc(-c2ccc(OCCCN3CCN(c4ccccc4)CC3)cc2)cc1` (centres unmarked) [Compound 84, N-hydroxy-N′-methyl-2-[methyl({4′-[3-(4-phenylpiperazin-1-yl)propoxy]biphenyl-4-yl}carbonyl)amino]propanediamide], the IC50 was < 10 nM.
